Measured values reported in the NIST ThermoML archive (doi:10.1021/je050294+).

Assays:
[1] = xn = mol fraction of the nth substance listed; conditions: Liquid; for speed of sound: Linear variable-path acoustic interferometer; for mass density: Vibrating tube method
[2] = excess molar enthalpy (molar enthalpy of mixing); xn = mol fraction of the nth substance listed; conditions: 101 kPa, Liquid, Flow calorimetry

C=C1CCC2CC1C2(C)C (stereo not drawn) [β-pinene] + CCC(C)O
[1], 101.3 kPa
Conditions | mass density [kg/m3] | speed of sound [m/s]
283.15 K, x1 = 0.0526 | 820.26 | 1271.9
283.15 K, x1 = 0.1031 | 824.88 | 1276.6
283.15 K, x1 = 0.2058 | 833.37 | 1285.1
283.15 K, x1 = 0.3006 | 840.38 | 1292.5
283.15 K, x1 = 0.4019 | 847.14 | 1299.8
283.15 K, x1 = 0.5035 | 853.29 | 1307.2
283.15 K, x1 = 0.6023 | 858.87 | 1314.9
283.15 K, x1 = 0.7047 | 864.32 | 1323.5
283.15 K, x1 = 0.7995 | 869.14 | 1332.4
283.15 K, x1 = 0.8988 | 873.93 | 1342.4
283.15 K, x1 = 0.9401 | 875.92 | 1347
298.15 K, x1 = 0.0522 | 807.98 | 1216.6
298.15 K, x1 = 0.105 | 812.54 | 1220.2
298.15 K, x1 = 0.206 | 820.79 | 1227.3
298.15 K, x1 = 0.3006 | 827.65 | 1233.5
298.15 K, x1 = 0.3995 | 834.25 | 1240
298.15 K, x1 = 0.5017 | 840.58 | 1247.2
298.15 K, x1 = 0.6096 | 846.71 | 1255.5
298.15 K, x1 = 0.7011 | 851.61 | 1263
298.15 K, x1 = 0.8035 | 856.93 | 1272.5
298.15 K, x1 = 0.9067 | 862.02 | 1282.6
298.15 K, x1 = 0.9449 | 863.9 | 1287
313.15 K, x1 = 0.0526 | 794.95 | 1161.7
313.15 K, x1 = 0.0997 | 799.22 | 1164.1
313.15 K, x1 = 0.2028 | 807.25 | 1170.4
313.15 K, x1 = 0.2999 | 814.22 | 1175.7
313.15 K, x1 = 0.4043 | 821.27 | 1182.5
313.15 K, x1 = 0.5088 | 827.69 | 1189.9
313.15 K, x1 = 0.6027 | 833.19 | 1197
313.15 K, x1 = 0.6993 | 838.59 | 1205
313.15 K, x1 = 0.8035 | 844.16 | 1214.6
313.15 K, x1 = 0.896 | 848.93 | 1223.2
313.15 K, x1 = 0.9453 | 851.52 | 1228.7

excess molar enthalpy [kcal/mol], [2]
Conditions | 283.15 K | 298.15 K | 313.15 K
x1 = 0.066 | 0.0306 | 0.0413 | 0.0397
x1 = 0.134 | 0.0629 | 0.087 | 0.0968
x1 = 0.259 | 0.111 | 0.152 | 0.179
x1 = 0.38 | 0.143 | 0.196 | 0.234
x1 = 0.489 | 0.164 | 0.223 | 0.2682
x1 = 0.581 | 0.172 | 0.232 | 0.2806
x1 = 0.677 | 0.169 | 0.227 | 0.2768
x1 = 0.765 | 0.155 | 0.208 | 0.257
x1 = 0.845 | 0.131 | 0.177 | 0.223
x1 = 0.927 | 0.0925 | 0.127 | 0.161
x1 = 0.963 | 0.0669 | 0.0903 | 0.112

C=C1CCC2CC1C2(C)C (stereo not drawn) [β-pinene] + CCCCO
[1], 101 kPa
Conditions | mass density [kg/m3] | speed of sound [m/s]
283.15 K, x1 = 0.0494 | 822.4 | 1295.8
283.15 K, x1 = 0.1023 | 827.32 | 1299.6
283.15 K, x1 = 0.204 | 835.8 | 1305.9
283.15 K, x1 = 0.3052 | 843.23 | 1311.7
283.15 K, x1 = 0.4007 | 849.5 | 1316.8
283.15 K, x1 = 0.5005 | 855.39 | 1321.9
283.15 K, x1 = 0.5929 | – | 1323.6
283.15 K, x1 = 0.695 | 865.44 | 1332
283.15 K, x1 = 0.7975 | 870.17 | 1338.1
283.15 K, x1 = 0.9009 | 874.7 | 1345.2
283.15 K, x1 = 0.9179 | 875.44 | 1347.3
298.15 K, x1 = 0.054 | 811.4 | 1243.7
298.15 K, x1 = 0.1027 | 815.79 | 1246.2
298.15 K, x1 = 0.1893 | 822.86 | 1250.3
298.15 K, x1 = 0.2992 | 830.92 | 1255.2
298.15 K, x1 = 0.4011 | 837.49 | 1259.4
298.15 K, x1 = 0.4987 | 843.18 | 1263.5
298.15 K, x1 = 0.6041 | 848.79 | 1268.1
298.15 K, x1 = 0.6946 | 853.25 | 1272.3
298.15 K, x1 = 0.7745 | 856.95 | 1276.6
298.15 K, x1 = 0.9003 | 862.46 | 1284.6
298.15 K, x1 = 0.9349 | 863.93 | 1287.4
313.15 K, x1 = 0.0493 | 799.21 | 1193.1
313.15 K, x1 = 0.1011 | 803.76 | 1194.6
313.15 K, x1 = 0.1988 | 811.57 | 1197.8
313.15 K, x1 = 0.3012 | 818.82 | 1201
313.15 K, x1 = 0.3998 | 825.01 | 1203.9
313.15 K, x1 = 0.5009 | 830.84 | 1207.3
313.15 K, x1 = 0.6003 | 836.12 | 1211.4
313.15 K, x1 = 0.7062 | 841.36 | 1216.2
313.15 K, x1 = 0.8017 | 845.7 | 1221.1
313.15 K, x1 = 0.8988 | 850.1 | 1227.1
313.15 K, x1 = 0.954 | 852.44 | 1231.4

excess molar enthalpy [kcal/mol], [2]
Conditions | 283.15 K | 298.15 K | 313.15 K
x1 = 0.066 | 0.0117 | 0.0165 | 0.0213
x1 = 0.134 | 0.0253 | 0.0366 | 0.0468
x1 = 0.259 | 0.0514 | 0.0741 | 0.102
x1 = 0.371 | 0.0724 | 0.102 | 0.137
x1 = 0.489 | 0.0901 | 0.125 | 0.17
x1 = 0.591 | 0.101 | 0.138 | 0.186
x1 = 0.677 | 0.105 | 0.141 | 0.19
x1 = 0.765 | 0.0985 | 0.133 | 0.179
x1 = 0.856 | 0.0846 | 0.114 | 0.153
x1 = 0.927 | 0.0674 | 0.0889 | 0.116
x1 = 0.975 | 0.0435 | 0.0667 | 0.0786
